Read-outs that look alike come from different tables or passages of the source.
Tests used:
X4-tropic HIV-1IIIb = assay: HIV-1IIIb infection of activated PBMCs, HIV-1 gag p24 ELISA on day 7; assay type: cell-based
Procedure: (§1) Mock-infected PBMCs were used as the negative control.
(§2) The antiviral activity of each drug, M48U1 and tenofovir, formulated in 0.25% HEC hydrogel was determined in an activated PBMC model. […] This mixture was added to PBMCs activated with IL-2 and PHA for a two-hour incubation at 37 °C. To evaluate the antiviral effect of M48U1, the level of HIV-1 gag p24 protein in the culture supernatant was determined at seven days post-infection using an ELISA. A significant decrease (p < 0.05; Mann Whitney test) in the HIV-1 p24 level was found (Fig. 1).
(§3) Figure 1 M48U1 and tenofovir formulated in 0.25% HEC each inhibited the replication of both R5-tropic HIV-1BaL and X4-tropic HIV-1IIIb in activated PBMCs. […] After this incubation, these solutions were used to resuspend activated PBMCs for 2 hours at 37 °C. HIV-1 replication was monitored by a HIV-1 p24 ELISA assay on the cell culture supernatants performed on day 7 post-infection. […] Three experiments in triplicate were performed.

pREJO.c/2864 T/F IMC = assay: T/F IMC infection of TZM-bl cells, luciferase readout; assay type: cell-based, HIV-1; settings: pREJO.c/2864, TZM-bl cells
Procedure: (§4) TZM-bl cells (1 × 10^4/well in a 100 μL volume) in 10% D-MEM growth medium containing DEAE-dextran (Sigma) at a final concentration of 7.5 μg/mL were then added to the plate. Assay controls included replicate wells of TZM-bl cells alone in HEC 0.25% (cell control) and TZM-bl cells with virus (virus control). Following 72 hours of incubation at 37 °C, 150 μL of culture medium were removed from each well and replaced with 100 μL of Bright-Glo luciferase reagent (Promega). After 2-minutes of incubation, 150 μL of the cell lysate were transferred to a 96-well white solid plate and luminescence was measured using a Victor Light 2030 luminometer (Perkin Elmer). The percentage of infection for each T/F strain was calculated by comparing the relative luminescence units (RLU) of the virus control wells after subtraction of the cell control RLU[44].
(§5) Figure 2 M48U1 in 0.25% HEC and tenofovir in 0.25% HEC each inhibited several laboratory strains and patient-derived HIV-1 isolates. Treatment with either 1 μM M48U1/0.25% (A) or 5 μM tenofovir/0.25% HEC (B) inhibited the replication of all tested laboratory and patient-derived strains. The HIV-1 strain tropism was determined with a sequencing analysis for the patient-derived strains. […] HIV-1 replication was monitored by the HIV-1 p24 ELISA assay using cell culture supernatants obtained on day 7 post-infection. […]

in vitro = settings: human, activated PBMCs
[1] = system: HIV-1BaL, HIV-1IIIb, HIV-1ADA, HIV-1RU132, HIV-1ARV-2, HIV-1CBL4; assay: Laboratory HIV-1 strains in activated PBMCs, p24 ELISA on day 7; assay type: cell-based; settings: 1 μM M48U1 or 5 μM tenofovir in 0.25% HEC; p < 0.05
Procedure: as §1
(§6) Figure 2 M48U1 in 0.25% HEC and tenofovir in 0.25% HEC each inhibited several laboratory strains and patient-derived HIV-1 isolates. Treatment with either 1 μM M48U1/0.25% (A) or 5 μM tenofovir/0.25% HEC (B) inhibited the replication of all tested laboratory and patient-derived strains. The HIV-1 strain tropism was determined with a sequencing analysis for the patient-derived strains. The combination of the two HIV-1 drugs inhibited HIV-1 replication independent of the HIV-1 strain tropism. HIV-1 replication was monitored by the HIV-1 p24 ELISA assay using cell culture supernatants obtained on day 7 post-infection. […] Three experiments in triplicate were performed. Analysis of antiretroviral activity of 1 μM M48U1 in 0.25% HEC (C) or 5 μM tenofovir in 0.25% HEC (D) performed in TZM-bl cells infected with pREJO.c/2864 and pTHRO.c/2626 T/F IMCs. […] Each sample was performed in triplicate and was repeated in three independent experiments.

[2] = MTT tissue viability in the EpiVaginal tissue model; assay type: cell-based; settings: human, EpiVaginal tissue model (cervicovaginal cultures), 20 μM tenofovir and/or 6.7 μM M48U1 in 0.25% HEC
Procedure: (§7) At the end of the incubation at 37 °C, the hydrogel was discarded and the cervicovaginal cultures were washed with PBS to remove any residual hydrogel. The cervicovaginal cultures were analyzed using the MTT kit protocol (MatTek Corporation). Cell cultures incubated with sterile distilled water were employed as a negative control. Triton X-100 (1%)-treated cultures were used as the positive control. The LDH cytotoxicity detection kit (TaKaRa Bio Inc, Japan) was used to detect LDH release from the tissues according to the manufacturer’s protocols. […] After incubation, the concentration of IL-1α in the culture medium was measured using the IL-1α ELISA Kit, according to the manufacturer’s instructions (Bender Medsystem, Wien, Austria). The concentration of IL-1α was calculated by interpolation from a standard calibration curve.

R5-tropic HIV-1BaL = assay: HIV-1BaL infection of activated PBMCs, HIV-1 gag p24 ELISA on day 7; assay type: cell-based
Procedure: as §1, §2, §3

HSV-2 = system: HSV-2; set-up: method as in PMID 20643915, PMID 22018238, PMID 20709216; settings: CAPRISA 004 trial; cited from earlier work
pTHRO.c/2626 T/F IMC = assay: T/F IMC infection of TZM-bl cells, luciferase readout; assay type: cell-based, HIV-1; settings: pTHRO.c/2626, TZM-bl cells
Procedure: as §4, §5

[3] = system: HIV-1 subtype B and C isolates (HIV-1AMBR5N, HIV-1FBR5N, HIV-1SLR5N, HIV-1ARR5X4, HIV-1CSBX4); assay: Patient-derived HIV-1 isolates in activated PBMCs, p24 ELISA on day 7; assay type: cell-based; settings: 1 μM M48U1 (five isolates) or 5 μM tenofovir (three isolates from naïve patients) in 0.25% HEC; p < 0.05
Procedure: as §1, §6

EpiVaginal tissue model = settings: human, 20 μM
Procedure: as §7

HIV-1BaL = assay: HIV-1BaL-infected cervicovaginal histoculture (EpiVaginal), proviral DNA qPCR; assay type: cell-based; settings: day 4 post-infection, vs HEC-treated infected samples
Procedure: The EpiVaginal Tissue Model (VLC-100FT; MatTek Corporation, Ashland, MA, USA) was maintained in a 24-well plate according to the manufacturer’s instructions. […] Subsequently, the wells were challenged with HIV-1BaL (25 ng p24/tissue well) for 24 hours. Mock-infected 0.25% HEC-treated wells were used as negative control. The apical surface of each tissue was washed twice with PBS after incubation with HIV-1BaL and the same formulations were added on day 1 for 24 hours. The underlying media was changed every day, and cervicovaginal tissues were harvested on day 4 post-infection.
Total DNA was extracted and purified from the tissues using the QIAamp DNA Mini Kit (Qiagen, Hilden, Germany). Proviral DNA was quantified by real-time quantitative PCR assay using the HIV-1 DNA qPCR kit (Diatheva, Fano, Italy) based on SYBR Green chemistry as indicated by the manufacturer. […] Total DNA amount was determined by spectrophotometry. The amplification was carried out as follows: an initial cycle of denaturation step at 95 °C for 15 minutes, followed by 10 cycles of denaturation at 95 °C for 15 seconds and annealing/extension at 68 °C for 35 seconds, and a final 35 cycles of denaturation at 95 °C for 15 seconds and annealing/extension with fluorescence acquisition at 68 °C for 35 seconds. […]

[4] = 1 μM M48U1 or 5 μM tenofovir in 0.25% HEC
[5] = 6.7 μM M48U1 or 20 μM tenofovir in 0.25% HEC

SMILES: C[C@H](Cn1cnc2c(N)ncnc21)OCP(=O)(O)O [tenofovir]
- inhibition of HIV-1IIIb replication (X4-tropic HIV-1IIIb; [4]): over 90%
- IC50 (X4-tropic HIV-1IIIb; Human immunodeficiency virus 1, PBMC, 168 h, HIV-1IIIb, activated PBMCs, drug in 0.25% HEC, p24 day 7 post-infection): 1.08 µM
- reduction in viral replication (pREJO.c/2864 T/F IMC; [4]): 86.8%
- reduction in viral replication (pREJO.c/2864 T/F IMC; [5]): 95%
- CC50 at 7 days (in vitro): > 20 µM
- replication of laboratory HIV-1 strains (p24 in cell supernatant) [1]: suppressed the replication of all HIV-1 strains tested
- viability at 1 h, 20 μM ([2]; 1 hour): 95%
- viability at 4 h, 20 μM ([2]; 4 hours): 96%
- viability at 18 h, 20 μM ([2]; 18 hours): 88%
- viability at 96 h, 20 μM ([2]; 96 hours): 104%
- inhibition of HIV-1BaL replication (R5-tropic HIV-1BaL; [4]): over 90%
- IC50 (R5-tropic HIV-1BaL; Human immunodeficiency virus 1, PBMC, 168 h, HIV-1BaL, activated PBMCs, drug in 0.25% HEC, p24 day 7 post-infection): 1.22 µM
- decrease of HSV-2 infections (HSV-2): 51%
- reduction in viral replication (pTHRO.c/2626 T/F IMC; [4]): 78%
- reduction in viral replication (pTHRO.c/2626 T/F IMC; [5]): 93%
- infection of PBMCs with patient-derived HIV-1 subtype B and C isolates [3]: inhibited viral replication in all three cases
- LDH release (Abs) (EpiVaginal tissue model; 1 h): 0.207 ± 0.06 Abs
- LDH release (Abs) (EpiVaginal tissue model; 4 h): 0.381 ± 0.05 Abs
- LDH release (Abs) (EpiVaginal tissue model; 18 h): 0.922 ± 0.2 Abs
- LDH release (Abs) (EpiVaginal tissue model; 96 h): 1.498 ± 0.13 Abs
- decrease in the amount of proviral HIV-1 DNA (folds of inhibition, mean) (HIV-1BaL; 0.67 μM M48U1, 2 μM tenofovir or both in 0.25% HEC): 11 fold
- decrease in the amount of proviral HIV-1 DNA (folds of inhibition, mean) (HIV-1BaL; 6.7 μM M48U1, 20 μM tenofovir or both in 0.25% HEC): ~45 fold
